Experimental findings from US20180245048A1, “METHODS AND COMPOSITIONS FOR EXPANSION AND DIFFERENTIATION OF SKELETAL MUSCLE STEM CELLS OR PROGENITOR CELLS” (AGENCY FOR SCIENCE, TECHNOLOGY AND RESEARCH, priority 2015, published 2018) are described below.

Experiment [1] has as its system induced pluripotent stem cell-derived myoblasts. Put plainly: PAX7 mRNA expression in induced pluripotent stem cell-derived myoblasts. Format: cell-based, human. The settings on record: 20 ng/ml bFGF, 3 μM CHIR99021, 2.5 μg/ml DLL1, alone or combined; vs untreated control (FIG. 1).
The test system of experiment [2] is induced pluripotent stem cell-derived myotubes. Briefly: qPCR screen of myogenic differentiation markers, 70 small molecules. As to conditions: for MyoD, MyoG and MYHC (myosin heavy chain) expression: each individually, during drug-induced myogenesis from human iPSC (FIG. 9); for expression of differentiated myocyte markers MYOG, MYHC, MYH3, MYH8 and adult myotube markers MYH7, MYH2, MYH1: screen, vs untreated control (FIG. 9). Format: cell-based, human. The protocol: FIG. 9 is a heat map showing the levels of MYOG, MYHC, MYH3, MYH8, MYH7, MYH2, MYH1 expression in induced pluripotent stem cell-derived myotubes after screening with 70 different small molecules related to the metabolomics findings, compared to an untreated control group.
Thus carnitine to facilitate fatty acid oxidation, the fatty acids linoleate, arachidonate and palmitate to fuel fatty acid oxidation were tested. It was also tested whether statin inhibitors of steroid synthesis, such as fluvastatin, and steroids like testosterone or progesterone could boost human myotube differentiation. Against this background, a variety of other small molecule drugs and metabolites were also screened, including OxPhos inhibitors and vitamins, to test their effects on myotube differentiation. A qPCR screen was then performed for various myogenic differentiation markers on human induced pluripotent stem cell-derived myoblasts exposed to these 70 conditions (FIG. 9).
A general note: Quantitative PCR measures a nucleic acid by following its amplification.

In experiment [3] the test system is human induced pluripotent stem cell-derived myoblasts. Briefly: qPCR screen of lineage markers (OCT3/4, NCAM, AFP, PAX7), 70 small molecules. As to conditions: vs untreated control (FIG. 3); for PAX7 mRNA expression: during FGF/Wnt/Notch-induced myogenesis. Format: cell-based. The protocol:
FIG. 3 is a heat map showing the levels of OCT3/4, NCAM, AFP and PAX7 mRNA expression in induced pluripotent stem cell-derived myoblasts after screening with 70 different small molecules related to the metabolomics findings, compared to an untreated control group.
Thus, the adenylyl cyclase agonist Forskolin was tested to induce cAMP synthesis, and cobalamin was administered to see if these compounds boosted the expansion of human myoblasts. It was also tested whether glutamine, hypoxanthine and thymidine—all of which are rate-limiting for nucleotide synthesis—could boost human myoblast expansion. Against this background, a variety of other small molecule drugs and metabolites were screened, including amino acids and fatty acids, thereby testing their effects on myoblast expansion. A real-time polymerase chain reaction (qPCR) screen was then performed for various lineage markers (pluripotency marker OCT3/4, neuromuscular marker NCAM, endoderm marker AFP, muscle marker Pax7) on human induced pluripotent stem cell-derived myoblasts exposed to these 70 conditions (FIG. 3).

“bFGF: FGF2 (basic fibroblast growth factor), FGF signalling agonist”: the “PAX7 mRNA expression” value in experiment [1] is “increase in PAX7 expression”.
For `C[N+](C)(C)CC(O)CC(=O)[O-]` (centres unmarked) [carnitine], in experiment [2], the “MyoD, MyoG and MYHC (myosin heavy chain) expression” value (from here on “MyoD, MyoG and MYHC”) was “specifically increase”; the “expression of differentiated myocyte markers MYOG, MYHC, MYH3, MYH8 and adult myotube markers MYH7, MYH2, MYH1” value was “increase expression”.
On the same counts, the results for `CCCCC/C=C\C/C=C\CCCCCCCC(=O)O` [linoleic acid] are “specifically increase” and “increase expression”.
As for `Cc1cnc(-c2cnc(NCCNc3ccc(C#N)cn3)nc2-c2ccc(Cl)cc2Cl)[nH]1` [CHIR99021, 6-[[2-[[4-(2,4-dichlorophenyl)-5-(5-methyl-1H-imidazol-2-yl)-2 pyrimidinyl]amino]ethyl]amino]-3-pyridinecarbonitrile, reference compound], the “PAX7 mRNA expression” value in experiment [1] is listed as “increase in PAX7 expression”.
In the case of `CC(=O)OC(CC(=O)[O-])C[N+](C)(C)C` (centres unmarked) [O-acetyl-carnitine], the “MyoD, MyoG and MYHC” value in experiment [2] is given as “specifically increase”.
On to `NC(=O)CC[C@H](N)C(=O)O` [glutamine], for which, in experiment [3], the “PAX7 mRNA expression” value was “specifically increase”, the “AFP (endoderm marker) mRNA expression” value is “without increasing”, the “NCAM (neuromuscular marker) mRNA expression” value is recorded as “increase” and the “OCT3/4 (pluripotency marker) mRNA expression” value is reported as “without increasing”.
On to `O=c1[nH]cnc2nc[nH]c12` [hypoxanthine], for which the “PAX7 mRNA expression” value in experiment [3] is reported as “specifically increase”.
For cobalamin [vitamin B12], in experiment [3], the “PAX7 mRNA expression” value was “increase”, the “AFP (endoderm marker) mRNA expression” value is recorded as “without increasing”, the “NCAM (neuromuscular marker) mRNA expression” value was “increase” and the “OCT3/4 (pluripotency marker) mRNA expression” value is reported as “without increasing”. For the same compound, the “PAX7 mRNA expression” value in experiment [3] (listed as cobalamin) was “specifically increase”.
Take `Cc1cn([C@H]2C[C@H](O)[C@@H](CO)O2)c(=O)[nH]c1=O` [thymidine]: the “PAX7 mRNA expression” value in experiment [3] is reported as “specifically increase”.
As to `C[C@]12CC[C@H]3[C@@H](CCC4=CC(=O)CC[C@@]43C)[C@@H]1CC[C@@H]2O` [testosterone, reference compound], in experiment [2], the “MyoD, MyoG and MYHC” value was “specifically increase”; the “expression of differentiated myocyte markers MYOG, MYHC, MYH3, MYH8 and adult myotube markers MYH7, MYH2, MYH1” value was “increase expression”.
